# According to patent US7687640B2, “Cinnamide compound” (Eisai R&D Management Co., Ltd., priority 2004, dated 2010):
# Tested on: Aβ42 production
# Test: Quantification of Aβ peptide (Aβx-42 ELISA) in neuronal culture from rat fetus brain
# Type: cell-based
# Details: primary neuronal culture from cerebral cortices of embryonic day 18 Wistar rat; compound added on day 4 of culture, incubation for 3 days; Aβx-42 in medium by ELISA, % of CTRL; read-out: Effect to Reduce Aβ42 Production IC50
# Protocol: Quantification of Aβ Peptide in Neuronal Culture from Rat Fetus Brain (1)
# Primary neuronal cultures were prepared from cerebral cortices from embryonic day 18 Wistar rat (Charles River Japan, Yokohama, Japan). The embryos were aseptically removed from a pregnant rat under ether anesthesia. The brain was isolated from the embryo, and immersed in ice-cold L-15 medium (for example, Invitrogen Corp. Cat #11415-064, Carlsbad, Calif., USA, or SIGMA L1518, St. Louis. MO, USA). The cerebral cortex was collected under a stereoscopic microscope from the brain. The cerebral cortex fragments collected were subjected to enzyme treatment in an enzyme solution containing 0.25% trypsin (for example, Invitrogen Corp., Cat #15050-065, Carlsbad, Calif., USA) and 0.01% DNase (for example, Sigma D5025, St. Louis. MO, USA) at 37 C for 30 minutes to allow for cell dispersion. The enzyme reaction was terminated by addition of same volume of heat-inactivated horse serum. After centrifugation at 1500 rpm for 5 minutes, the supernatant was removed and 5-10 ml of medium was added to the cell pellet. Neurobasal Medium™ (Invitrogen Corp., Carlsbad, Calif., USA) supplemented with 2% B-27 supplement (Invitrogen Corp., Carlsbad, Calif., USA), 25 μM 2-mercaptoethanol (2-ME, WAKO, 139-06861, Osaka, Japan), 0.5 mM L-glutamine (for example, Invitrogen Corp., Cat # 25030-081, Carlsbad, Calif., USA), and 1% antibiotics-antimycotics (Invitrogen Corp., Cat # 15240-062, Carlsbad, Calif., USA) was used as the culture medium (Neurobasal/B27/2-ME). At the compound evaluation, the medium of the same composition not to add 2-ME alone (Neurobasal/B27) was used. The cell pellet was triturated by mild pipetting. Remaining cell pellet was removed by filtering through a 40-μm nylon mesh (Cell Strainer, Cat # 35-2340, Becton Dickinson Labware, Franklin Lakes, N.J., USA) and a neuronal cell suspension was obtained. The neuronal cell suspension was diluted with the Neurobasal/B27/2-ME medium and then plated in a volume of 100 μl/well to obtain an initial cell density of 5×10^5 cells/cm^2 in a 96-well polystyrene plate pre-coated with poly-L or D-lysine (for example, Falcon MICROTEST Tissue culture plate 96 well flat bottom with low evaporation lid (Cat # 35-3075, Becton Dickinson Labware, Franklin Lakes, N.J., USA) coated with poly-L-lysine using the method shown below, or BIOCOAT™ cell environments Poly-D-lysine cell ware 96-well plate, Cat # 35-6461, Becton Dickinson Labware, Franklin Lakes, N.J., USA). Poly-L-lysine coating was carried out as follows. Poly-L-lysine (SIGMA P2636, St. Louis, Mo., USA) solution at 100 μg/ml was prepared aseptically with 0.15 M Borate buffer (pH 8.5). The solution was added to a 96-well polystyrene […] at 50-100 μl/well and incubated at room temperature for one hour or more, or at 4 C overnight or longer. This was rinsed 4 or more times with sterile water, and then dried or rinsed with, for example, sterile PBS or medium, and used for plating cells. Cells were cultured for one day in an incubator of 5% CO2-95% air at 37 C, the entire amount of the medium was exchanged with fresh Neurobasal/B27/2-ME, and the cells were then cultured for further 3 days.
# Drugs were added on day 4 of culture as follows. The entire amount of the medium was removed from culture well, and Neurobasal/B27 medium was added at 180 μl/well. The test compound dimethyl sulfoxide (hereinafter abbreviated as DMSO) solution was diluted with Neurobasal/B27 so than it would be 10-fold of the desired final concentration. A diluent was added at 20 μl/well and mixed well. The final concentration of DMSO was 1% or less. Only DMSO was added to the control group.
# After incubation for 3 days, the entire amount of the medium was collected as ELISA sample. This was used without any dilution for Aβx-42 measurement, and diluted to 5-fold with the diluent supplied with ELISA kit for Aβx-40 measurement, before subjecting to respective ELISA assays. […]
row,SMILES,IC50
1,"COc1cc(/C=C2\CCCN(C3CCc4ccccc4C3)C2=O)ccc1-n1cnc(C)c1 (stereo not drawn) [Example 1014, (E)-3-[3-methoxy-4-(4-methyl-1H-imidazol-1-yl)benzylidene]-1-[(2R and 2S)-1,2,3,4-tetrahydronaphthalen-2-yl]piperidin-2-one]",60 nM
2,"COc1cc(/C=C2\CCCN([C@H](C)c3ccc(F)cc3F)C2=O)ccc1-n1cnc(C)c1 (mixture of isomers) [Example 621, (E)-1-[(1R) and (1S)-1-(2,4-difluorophenyl)ethyl]-3-[3-methoxy-4-(4-methyl-1H-imidazol-1-yl)benzylidene]piperidin-2-one]",100 nM
3,"COc1cc(/C=C2\CCCN(Cc3cccc(Cl)n3)C2=O)ccc1-n1cnc(C)c1 [Example 427, (E)-1-[(6-chloropyridin-2-yl)methyl]-3-[3-methoxy-4-(4-methyl-1H-imidazol-1-yl)benzylidene]piperidin-2-one]",780 nM
